Assay results from publication PMC9023544, “Ketone-selenoesters as potential anticancer and multidrug resistance modulation agents in 2D and 3D ovarian and breast cancer in vitro models” (Scientific Reports, 2022).

How the values were obtained:
[1] = tested on: ABC superfamily genes in HOC/ADR; test: Expression of genes encoding ABC transporters, qPCR; format: cell-based, human; conditions: IC10 alone, 48 h
Method: Based on the fact that compounds K3, K4, K7 sensitized drug-resistant cell lines (HOC/ADR, MCF-7/PAX) and modulated ATPase activity of one from the ABC proteins (P-gp), we verified the potential of these compounds to affect ABC superfamily gene expression. The ovarian and breast cancer cell lines (parental cells and resistant sub-line) were analysed for the expression profile of genes encoding the ABC proteins in the previous works[18]–[20]. […] After 48 h, the effect of compounds alone or in the combination with cytostatics was observed (Supplementary Tables 1, Table 2).
To determine the impact of selected compounds on the expression of genes encoding ABC transporter, HOC/ADR and MCF-7/PAX cells were seeded for 24 h into 5 cm Petri dishes with DMEM medium at the cell density 1 × 10^5 cells/mL. Afterwards, the cells were washed 1× with PBS and new fresh DMEM supplemented with K3, K4, and K7 (in concentration corresponding to their IC10 value) alone or combined with cytostatics (Adriamycin or paclitaxel in concentration corresponding to their IC25 value) was added. In the experiment, positive and negative control was also included (positive—untreated cells, negative—cells treated only with cytostatics). After 48 h exposure, the cells were washed once with PBS and released from the surface by using the above-mentioned trypsin–EDTA procedure. The enzyme reaction was stopped by medium addition and the cells were centrifuged (3200×g; 10 min, 4 °C). The supernatants were removed and before the next centrifugation, the pellets were resuspended in 1.5 mL of cooled PBS (5400×g; 10 min, 4 °C). After the second washing step, the cells were centrifuged another time (10,000×g; 3 min, 4 °C). Subsequently, 1 mL of Trizol (Invitrogen) was added to the pellets and the compounds were stored − 80 °C.
The RNA concentration of selenoester treated samples was determined using QuantiT RiboGreen RNA Assay Kit and Infinite M200 plate reader (Tecan, Männedor, Switzerland). The cDNA was synthesized from 0.5 µg of total RNA by RevertAid First Strand Synthesis cDNA Kit (MBI Fermentas, Vilnius, Lithuania). To determine the quality of cDNA, the ubiquitin C gene fragment was amplified. The experiment was performed in 384-well block by using ViiA7 Real-Time PCR System (Life Technologies, Camarillo, California, United States). A master mix contained 0.25 µL of 20× TaqMan Gene Expression Assay, 1 µL of 5× HotFIREPol Probe qPCR Mix Plus, 1.75 µL of RNase free water and 2 µL of 8× diluted cDNA. The final reaction volume was 5 µL. The PCR parameters were as follows: initial hold (50 °C for 2 min), denaturation (95 °C for 10 min), followed by 45 cycles (denaturation at 95 °C for 15 s, annealing at 60 °C for 1 min). After each cycle, the fluorescent signal was determined. For each compound, duplicates were analysed and those with a standard deviation higher than 0.5 Ct were re-analysed. A quantitate real-time PCR was followed by MIQE guidelines. To compare the relative transcript levels of genes, the software REST 2009 (Qiagen, Hilden, Germany) was used.
Table 1. Effect of selenoesters on the expression of genes of the ABC superfamily in Adriamycin-resistant ovarian carcinoma cell line (HOC/ADR).
Gene expression of ABC transporters were estimated using comercial predesigned Taqman Gene Expression Assays (Life technologies). TaqMan Gene Expression Assays are based on 5´ nuclease chemistry, and each assay contains the primer and probe set for target of interest. Taqman assays IDs and GenBank Accession numbers of reference sequencies identifying their location and amplicon lengths are included in […]. * Relative transcript levels (P-value ) in treated and non-treated cancer cell lines were compared using REST 2009 software.

[2] = tested on: HEK293 (human embryonic kidney cell line); test: Cytotoxic activity, non-cancerous cell line, resazurin, 72 h; format: cell-based; conditions: for IC50: Homo sapiens, HEK293, 72 h, mean ± SEM, n=3
Method: The cytotoxic potential of selenoesters was tested on several cancer cell lines—HOC (human parental ovarian adenocarcinoma, HOC, A2780, Sigma-Aldrich), HOC/ADR (sub-line resistant to Adriamycin, A2780/ADR, Sigma-Aldrich), MCF-7 (human breast adenocarcinoma, ATCC®, HTB-22TM), MCF-7/PAX (resistant sub-line established by gradual adaptation of parental cells to increased concentration of paclitaxel; kindly provided by Division of Cell and Molecular Biology, Third Faculty of Medicine, Charles University, Czech Republic) and on one non-cancerous cell line—HEK293 (human embryonic kidney cell line, Leibniz Institute, DSMZ-German Collection of Microorganisms and Cell Cultures GmbH). All mentioned cell lines were authenticated using short tandem repeat (STR) profiling. Cell lines were cultivated in DMEM medium (10% FBS, 1× antibiotic antimycotic solution), except for HEK293 cell line which was cultivated without antibiotics. In case of the resistant cell lines, the medium was supplemented with a required concentration of cytostatics to maintain resistance (HOC/ADR—100 nM Adriamycin; MCF-7/PAX—300 nM paclitaxel). All cells were cultivated in a CO2 incubator (5% CO2, 37 °C, Thermo Fisher Scientific).
For the experiment, the cells at passage number 5–20 were seeded at a 1 × 10^5 cells/mL concentration into 96-well plates to 100 µL final volume. The final concentration range of the compounds was 0.63–20 µM. After an incubation of 72 h, the plates were washed 1× with PBS and resazurin solution (0.03 mg/mL in 1× PBS) was added. After 1 h of incubation, the fluorescence signal was recorded (ex./em. 560/590 nm).
The selectivity index (SI) was determined as the ratio of IC50 value for the non-cancerous cells to IC50 for the cancer cell line. For resistant cell lines, the collateral sensitivity (CS) was calculated as the ratio of IC50 value in sensitive tumour cells to IC50 in the resistant cancer cell line. In both cases, the selectivity is considered as: (1) strongly selective when SI or CS value is above 6, (2) moderately selective when SI or CS is between 3 and 6, (3) slightly selective when SI or CS is between 1 and 3 and (4) non-selective when SI or CS is less than 1[23].

Structure (SMILES) | ABCA1 Expression Difference [1] | ABCA2 Expression Difference [1] | ABCA3 Expression Difference [1] | ABCA5 Expression Difference [1] | ABCA7 Expression Difference [1] | ABCA7 Treated vs. Untr. [1] | ABCB1 Expression Difference [1] | ABCB2 Expression Difference [1] | ABCB2 Treated vs. Untr. [1] | ABCB3 Expression Difference [1] | ABCB6 Expression Difference [1] | ABCB8 Expression Difference [1] | ABCB9 Expression Difference [1] | ABCB10 Expression Difference [1] | ABCC1 Expression Difference [1] | ABCC2 Expression Difference [1] | ABCC5 Expression Difference [1] | ABCC10 Expression Difference [1] | ABCD1 Expression Difference [1] | ABCD1 Treated vs. Untr. [1] | also measured
CC(=O)C[Se]C(=O)c1ccc(Br)cc1 [K3] | 0.968 | 0.997 | 0.838 | 2.693 | 0.322 | DOWN | 3.825 | 0.315 | DOWN | 4.904 | 4.860 | 2.659 | 4.156 | 7.275 | 6.415 | 2.907 | 2.301 | 1.562 | 0.665 | DOWN | ABCA3 Treated vs. Untr. [1]: DOWN; ABCD2 Expression Difference [1]: 1.845; ABCD3 Expression Difference [1]: 2.960; ABCD4 Expression Difference [1]: 2.760; ABCE1 Expression Difference [1]: 7.298; ABCF1 Expression Difference [1]: 1.638; ABCF2 Expression Difference [1]: 2.868; ABCF3 Expression Difference [1]: 2.163; ABCG1 Expression Difference [1]: 0.932; ABCG2 Expression Difference [1]: 1.869; ABCG4 Expression Difference [1]: 0.755; ABCG4 Treated vs. Untr. [1]: DOWN; IC50 [2]: 2.4 µM
CC(=O)C[Se]C(=O)c1ccccc1C(F)(F)F [K4] | 1.347 | 0.948 | 0.832 | 2.334 | 0.359 | DOWN | 3.696 | 0.435 | DOWN | 4.568 | 5.132 | 3.526 | 4.981 | 8.165 | 8.545 | 3.272 | 2.336 | 1.545 | 0.796 | DOWN | ABCA3 Treated vs. Untr. [1]: DOWN; ABCB7 Expression Difference [1]: 7.250; ABCD2 Expression Difference [1]: 4.885; ABCD3 Expression Difference [1]: 3.302; ABCD4 Expression Difference [1]: 2.681; ABCE1 Expression Difference [1]: 6.945; ABCF1 Expression Difference [1]: 1.998; ABCF2 Expression Difference [1]: 3.096; ABCF3 Expression Difference [1]: 2.262; ABCG1 Expression Difference [1]: 1.213; ABCG2 Expression Difference [1]: 1.302; ABCG4 Expression Difference [1]: 0.776; ABCG4 Treated vs. Untr. [1]: DOWN; IC50 [2]: 5.4 ± 0.4 µM; selectivity indexes between HEK293 and cancer cell lines ([2]; all cancer cell lines tested): highest selectivity
CC(=O)C[Se]C(=O)c1ccc(C(C)(C)C)cc1 [K7] | 1.104 | 1.775 | 1.018 | 1.970 | 0.341 | DOWN | 5.009 | 0.591 | DOWN | 3.406 | 4.646 | 3.581 | 4.530 | 7.288 | 7.835 | 3.865 | 3.327 | 1.899 | 0.898 | DOWN | ABCB7 Expression Difference [1]: 7.145; ABCD2 Expression Difference [1]: 0.638; ABCD2 Treated vs. Untr. [1]: DOWN; ABCD3 Expression Difference [1]: 4.007; ABCD4 Expression Difference [1]: 3.541; ABCE1 Expression Difference [1]: 10.154; ABCF1 Expression Difference [1]: 2.212; ABCF2 Expression Difference [1]: 4.029; ABCF3 Expression Difference [1]: 3.001; ABCG1 Expression Difference [1]: 1.059; ABCG2 Expression Difference [1]: 1.468; ABCG4 Expression Difference [1]: 1.431; IC50 [2]: 1.5 ± 0.1 µM
